Biological target: STAT3 (Homo sapiens, UniProt P40763)
Assay: microscale thermophoresis (MST), recombinant human STAT3
Format: binding

Chain of STAT3 (P40763 2-770): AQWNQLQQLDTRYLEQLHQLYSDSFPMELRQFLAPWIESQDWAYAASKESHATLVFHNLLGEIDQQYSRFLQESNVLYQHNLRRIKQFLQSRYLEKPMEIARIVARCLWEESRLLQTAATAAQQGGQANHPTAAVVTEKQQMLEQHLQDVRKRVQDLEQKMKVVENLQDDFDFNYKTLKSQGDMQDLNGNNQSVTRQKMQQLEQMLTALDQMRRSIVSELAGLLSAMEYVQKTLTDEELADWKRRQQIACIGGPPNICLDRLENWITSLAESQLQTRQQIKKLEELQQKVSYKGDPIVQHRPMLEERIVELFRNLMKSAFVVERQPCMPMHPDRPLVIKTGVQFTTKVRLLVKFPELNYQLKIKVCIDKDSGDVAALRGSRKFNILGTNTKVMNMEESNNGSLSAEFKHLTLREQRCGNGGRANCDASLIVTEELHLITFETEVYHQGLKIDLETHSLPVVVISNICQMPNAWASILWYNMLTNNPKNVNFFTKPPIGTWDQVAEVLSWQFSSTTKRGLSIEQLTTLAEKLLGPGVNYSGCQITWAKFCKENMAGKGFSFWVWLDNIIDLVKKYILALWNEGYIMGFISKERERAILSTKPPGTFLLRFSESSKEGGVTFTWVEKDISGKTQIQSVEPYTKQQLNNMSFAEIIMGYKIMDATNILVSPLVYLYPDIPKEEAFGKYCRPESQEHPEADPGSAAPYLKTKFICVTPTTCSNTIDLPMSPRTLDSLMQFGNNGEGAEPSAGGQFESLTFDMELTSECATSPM

SMILES: CC(=O)O[C@@H]1C[C@H](O)[C@@]23CO[C@@H](O)[C@]1(C)[C@@H]2C[C@@H](O)[C@]1(C)[C@@H]3C(=O)[C@H](OC(C)=O)[C@@]2(C)[C@H](c3ccoc3)C[C@H]3O[C@]321 [TSN, toosendanin]
- Kd: 296 nM
